Assay results from ChEMBL document CHEMBL1139874, “New diphenylacetylenes as probes for positron emission tomographic imaging of amyloid plaques” (J Med Chem, 2007).
One block for each compound: values may come before it.

Columns and labels:
[1] = biological target: Amyloid-beta precursor protein (Homo sapiens, UniProt P05067); experiment: Displacement of [125I]IMPY from human beta amyloid plaque in brain homogenates; assay type: tissue-based
Spleen [2] = experiment: Biodistribution in ICR mouse spleen at 5 to 10 uCi, iv after 2 mins; assay type: ADME, organism-based; settings: in vivo
Brain [3] = experiment: Biodistribution in ICR mouse brain at 5 to 10 uCi, iv after 2 hrs; assay type: ADME, organism-based; settings: in vivo
[4] = Partition coefficient, log P at pH 7.4; assay type: physicochemical; settings: octanol/water
Spleen [5] = experiment: Biodistribution in ICR mouse spleen at 5 to 10 uCi, iv after 1 hr; assay type: ADME, organism-based; settings: in vivo
Muscle tissue [6] = experiment: Biodistribution in ICR mouse muscle at 5 to 10 uCi, iv after 2 mins; assay type: ADME, organism-based; settings: in vivo
Zone of skin [7] = experiment: Biodistribution in ICR mouse skin at 5 to 10 uCi, iv after 30 mins; assay type: ADME, organism-based; settings: in vivo, 0.5 h
Kidney [8] = experiment: Biodistribution in ICR mouse kidney at 5 to 10 uCi, iv after 2 mins; assay type: ADME, organism-based; settings: in vivo
Lung [9] = experiment: Biodistribution in ICR mouse lung at 5 to 10 uCi, iv after 30 mins; assay type: ADME, organism-based; settings: in vivo, 0.5 h
Liver [10] = experiment: Biodistribution in ICR mouse liver at 5 to 10 uCi, iv after 2 mins; assay type: ADME, organism-based; settings: in vivo
Zone of skin [11] = experiment: Biodistribution in ICR mouse skin at 5 to 10 uCi, iv after 1 hr; assay type: ADME, organism-based; settings: in vivo
Muscle tissue [12] = experiment: Biodistribution in ICR mouse muscle at 5 to 10 uCi, iv after 2 hrs; assay type: ADME, organism-based; settings: in vivo
Liver [13] = experiment: Biodistribution in ICR mouse liver at 5 to 10 uCi, iv after 1 hr; assay type: ADME, organism-based; settings: in vivo
Heart [14] = experiment: Biodistribution in ICR mouse heart at 5 to 10 uCi, iv after 1 hr; assay type: ADME, organism-based; settings: in vivo
Brain [15] = experiment: Biodistribution in ICR mouse brain at 5 to 10 uCi, iv after 1 hr; assay type: ADME, organism-based; settings: in vivo
Heart [16] = experiment: Biodistribution in ICR mouse heart at 5 to 10 uCi, iv after 30 mins; assay type: ADME, organism-based; settings: in vivo, 0.5 h
Bone [17] = experiment: Biodistribution in ICR mouse bone at 5 to 10 uCi, iv after 2 mins; assay type: ADME, organism-based, Bone element; settings: in vivo
Brain [18] = experiment: Biodistribution in ICR mouse brain at 5 to 10 uCi, iv after 2 mins; assay type: ADME, organism-based; settings: in vivo
Muscle tissue [19] = experiment: Biodistribution in ICR mouse muscle at 5 to 10 uCi, iv after 1 hr; assay type: ADME, organism-based; settings: in vivo
Bone [20] = experiment: Biodistribution in ICR mouse bone at 5 to 10 uCi, iv after 1 hr; assay type: ADME, organism-based, Bone element; settings: in vivo
Blood [21] = experiment: Biodistribution in ICR mouse blood at 5 to 10 uCi, iv after 30 mins; assay type: ADME, organism-based; settings: in vivo, 0.5 h
Spleen [22] = experiment: Biodistribution in ICR mouse spleen at 5 to 10 uCi, iv after 2 hrs; assay type: ADME, organism-based; settings: in vivo
Muscle tissue [23] = experiment: Biodistribution in ICR mouse muscle at 5 to 10 uCi, iv after 30 mins; assay type: ADME, organism-based; settings: in vivo, 0.5 h
Blood [24] = experiment: Biodistribution in ICR mouse blood at 5 to 10 uCi, iv after 1 hr; assay type: ADME, organism-based; settings: in vivo
Kidney [25] = experiment: Biodistribution in ICR mouse kidney at 5 to 10 uCi, iv after 2 hrs; assay type: ADME, organism-based; settings: in vivo
Brain [26] = experiment: Biodistribution in ICR mouse brain at 5 to 10 uCi, iv after 30 mins; assay type: ADME, organism-based; settings: in vivo, 0.5 h
Lung [27] = experiment: Biodistribution in ICR mouse lung at 5 to 10 uCi, iv after 2 mins; assay type: ADME, organism-based; settings: in vivo
Kidney [28] = experiment: Biodistribution in ICR mouse kidney at 5 to 10 uCi, iv after 1 hr; assay type: ADME, organism-based; settings: in vivo
Liver [29] = experiment: Biodistribution in ICR mouse liver at 5 to 10 uCi, iv after 2 hrs; assay type: ADME, organism-based; settings: in vivo
Heart [30] = experiment: Biodistribution in ICR mouse heart at 5 to 10 uCi, iv after 2 mins; assay type: ADME, organism-based; settings: in vivo
Zone of skin [31] = experiment: Biodistribution in ICR mouse skin at 5 to 10 uCi, iv after 2 mins; assay type: ADME, organism-based; settings: in vivo
Zone of skin [32] = experiment: Biodistribution in ICR mouse skin at 5 to 10 uCi, iv after 2 hrs; assay type: ADME, organism-based; settings: in vivo
Heart [33] = experiment: Biodistribution in ICR mouse heart at 5 to 10 uCi, iv after 2 hrs; assay type: ADME, organism-based; settings: in vivo
Lung [34] = experiment: Biodistribution in ICR mouse lung at 5 to 10 uCi, iv after 1 hr; assay type: ADME, organism-based; settings: in vivo
Spleen [35] = experiment: Biodistribution in ICR mouse spleen at 5 to 10 uCi, iv after 30 mins; assay type: ADME, organism-based; settings: in vivo, 0.5 h
Bone [36] = experiment: Biodistribution in ICR mouse bone at 5 to 10 uCi, iv after 30 mins; assay type: ADME, organism-based, Bone element; settings: in vivo, 0.5 h
Liver [37] = experiment: Biodistribution in ICR mouse liver at 5 to 10 uCi, iv after 30 mins; assay type: ADME, organism-based; settings: in vivo, 0.5 h
Kidney [38] = experiment: Biodistribution in ICR mouse kidney at 5 to 10 uCi, iv after 30 mins; assay type: ADME, organism-based; settings: in vivo, 0.5 h
Blood [39] = experiment: Biodistribution in ICR mouse blood at 5 to 10 uCi, iv after 2 mins; assay type: ADME, organism-based; settings: in vivo
Blood [40] = experiment: Biodistribution in ICR mouse blood at 5 to 10 uCi, iv after 2 hrs; assay type: ADME, organism-based; settings: in vivo
Lung [41] = experiment: Biodistribution in ICR mouse lung at 5 to 10 uCi, iv after 2 hrs; assay type: ADME, organism-based; settings: in vivo
Bone [42] = experiment: Biodistribution in ICR mouse bone at 5 to 10 uCi, iv after 2 hrs; assay type: ADME, organism-based, Bone element; settings: in vivo

Sequence of Amyloid-beta precursor protein (P05067 whole entry): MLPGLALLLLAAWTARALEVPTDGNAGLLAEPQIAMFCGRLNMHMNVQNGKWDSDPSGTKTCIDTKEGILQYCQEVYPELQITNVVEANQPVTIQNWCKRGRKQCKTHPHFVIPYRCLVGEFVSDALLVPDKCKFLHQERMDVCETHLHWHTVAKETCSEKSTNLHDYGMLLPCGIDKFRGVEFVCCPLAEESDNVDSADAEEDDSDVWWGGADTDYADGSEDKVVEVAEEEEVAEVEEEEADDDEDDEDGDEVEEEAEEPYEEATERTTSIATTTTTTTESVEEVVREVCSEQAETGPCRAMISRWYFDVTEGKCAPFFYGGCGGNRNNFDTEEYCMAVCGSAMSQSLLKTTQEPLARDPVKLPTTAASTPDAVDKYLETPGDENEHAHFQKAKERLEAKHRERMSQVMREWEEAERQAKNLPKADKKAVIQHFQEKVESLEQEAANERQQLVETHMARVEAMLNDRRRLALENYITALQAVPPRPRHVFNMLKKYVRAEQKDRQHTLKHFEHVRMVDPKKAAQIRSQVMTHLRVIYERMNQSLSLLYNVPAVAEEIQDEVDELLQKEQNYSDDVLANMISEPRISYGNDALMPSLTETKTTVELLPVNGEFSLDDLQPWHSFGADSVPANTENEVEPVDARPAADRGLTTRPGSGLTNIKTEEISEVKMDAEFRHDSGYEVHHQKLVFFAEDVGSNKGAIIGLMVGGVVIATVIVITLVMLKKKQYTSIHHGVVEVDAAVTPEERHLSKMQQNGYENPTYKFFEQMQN

SMILES: CNc1ccc(C#Cc2ccc(OCCOCCOCCF)cc2)cc1
Ki [1]: 1.9 nM

SMILES: Nc1ccc(C#Cc2ccc(O)cc2)cc1
Ki [1]: 106 nM

SMILES: CNc1ccc(C#Cc2ccc(OCCOCCF)cc2)cc1
Ki [1]: 1.2 nM

SMILES: C(#Cc1ccccc1)c1ccccc1 [DIPHENYLACETYLENE]
Ki [1]: 175 nM

SMILES: COc1ccc(C#Cc2ccc(O)cc2)cc1
Ki [1]: 2.9 nM

Other lines, results leading:

Drug uptake (Spleen [2]): 5.12 % ID/g
Drug uptake (Brain [3]): 1.34 % ID/g
logD [4]: 3.12
Drug uptake (Spleen [5]): 2.38 % ID/g
Drug uptake (Muscle tissue [6]): 0.91 % ID/g
Drug uptake (Zone of skin [7]): 2.23 % ID/g
Drug uptake (Kidney [8]): 12.9 % ID/g
Drug uptake (Lung [9]): 4.66 % ID/g
Drug uptake (Liver [10]): 19.3 % ID/g
Drug uptake (Zone of skin [11]): 1.71 % ID/g
Drug uptake (Muscle tissue [12]): 1.03 % ID/g
Drug uptake (Liver [13]): 9.99 % ID/g
Drug uptake (Heart [14]): 2.48 % ID/g
Drug uptake (Brain [15]): 2.06 % ID/g
Drug uptake (Heart [16]): 2.82 % ID/g
Drug uptake (Bone [17]): 1.78 % ID/g
Drug uptake (Brain [18]): 5.41 % ID/g
Drug uptake (Muscle tissue [19]): 1.21 % ID/g
Drug uptake (Bone [20]): 1.36 % ID/g
Drug uptake (Blood [21]): 6.13 % ID/g
Drug uptake (Spleen [22]): 2.31 % ID/g
Drug uptake (Muscle tissue [23]): 1.38 % ID/g
Drug uptake (Blood [24]): 5.68 % ID/g
Drug uptake (Kidney [25]): 4.16 % ID/g
Drug uptake (Brain [26]): 3.69 % ID/g
Drug uptake (Lung [27]): 11.1 % ID/g
Drug uptake (Kidney [28]): 4.79 % ID/g
Drug uptake (Liver [29]): 8.85 % ID/g
Drug uptake (Heart [30]): 10.5 % ID/g
Drug uptake (Zone of skin [31]): 0.85 % ID/g
Drug uptake (Zone of skin [32]): 1.67 % ID/g
Drug uptake (Heart [33]): 2.11 % ID/g
Drug uptake (Lung [34]): 3.82 % ID/g
Drug uptake (Spleen [35]): 2.94 % ID/g
Drug uptake (Bone [36]): 1.41 % ID/g
Drug uptake (Liver [37]): 11.2 % ID/g
Drug uptake (Kidney [38]): 4.75 % ID/g
Drug uptake (Blood [39]): 7.33 % ID/g
Drug uptake (Blood [40]): 5.17 % ID/g
Drug uptake (Lung [41]): 3.38 % ID/g
Drug uptake (Bone [42]): 1.65 % ID/g
SMILES: CN(C)c1ccc(C#Cc2ccc(OCCOCC[18F])cc2)cc1

Ki [1]: 4.5 nM
SMILES: CNc1ccc(C#Cc2ccc(OCCOCCOCCO)cc2)cc1

Ki [1]: 5 nM
SMILES: CN(C)c1ccc(C#Cc2ccc(OCCOCCF)cc2)cc1

Ki [1]: 2.9 nM
SMILES: CN(C)c1ccc(C#Cc2ccc(OCCOCCOCCF)cc2)cc1

Ki [1]: 3.1 nM
SMILES: CNc1ccc(C#Cc2ccc(OCCOCCO)cc2)cc1

Ki [1]: 3.8 nM
SMILES: CN(C)c1ccc(C#Cc2ccc(OCCOCCO)cc2)cc1
